Values of other authors, collected in patent publication US7816544B2, “Synthesis of rocaglamide natural products via photochemical generation of oxidopyrylium species” (Trustees of Boston University, priority 2004, dated 2010).

Tests used:
NF-κB = details: different mouse and human T cell lines; B. Baumann et al., J. Biol. Chem., 2002
human cancer cells = details: compared with Taxol; B. Y. Hwang et al., J. Org. Chem., 2004

SMILES	inhibition of NF-κB activity / NF-κB-induced gene activation (NF-κB)	cytotoxic activity against human cancer cells (human cancer cells)
COc1ccc([C@@]23Oc4cc(OC)cc(OC)c4[C@]2(O)[C@H](O)[C@H](C(=O)N(C)C)[C@H]3c2ccccc2)cc1 [Rocaglamide]	among the strongest inhibitors of NF-κB-induced gene activation known so far	
COC(=O)[C@H]1[C@@H](O)[C@@]2(O)c3c(OC)cc(O[C@@H]4O[C@@H]([C@H](O)CO)CO[C@H]4OC)cc3O[C@@]2(c2ccc(OC)cc2)[C@@H]1c1ccccc1 [silvestrol 2, silvestrol]		comparable to the anticancer drug Taxol
